Test results: patent US9302999B2, “Substituted triazoles as herbicides” (E. I. DU PONT DE NEMOURS AND COMPANY, priority 2012, dated 2016)

Tests used:
Format in all cases: in vivo
[1] = test system: crabgrass, large (large crabgrass, Digitaria sanguinalis); experiment: Test A pre-/postemergence: crabgrass, large
Procedure, shortened: (§1)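 Pre: directed soil spray after planting in loam + sand. Post: same formulation (non-phytotoxic solvent + surfactant) on 1–2-leaf plants, 2–10 cm. Greenhouse ~10 d; visual injury 0–100 vs untreated.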

[2] = test system: foxtail, giant (giant foxtail, Setaria faberii); experiment: Test A pre-/postemergence: foxtail, giant
Procedure, shortened: as §1

[3] = test system: velvetleaf (Abutilon theophrasti); experiment: Test A pre-/postemergence: velvetleaf
Procedure, shortened: as §1

[4] = test system: wild oat (Avena fatua); experiment: Test C pre-/postemergence: wild oat; conditions: Postemergence
Procedure, shortened: (§2)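 Preemergence on seeds in loam/sand, postemergence on 2–18 cm (1–4-leaf) plants in peat-based medium; compounds in non-phytotoxic solvent with surfactant. After 13–15 days in greenhouse, visual rating versus controls, 0 (no effect) to 100 (complete control).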

[5] = test system: galium (catchweed bedstraw, Galium aparine); experiment: Test C pre-/postemergence: galium
Procedure, shortened: as §2

[6] = test system: corn (Zea mays); experiment: Test C pre-/postemergence: corn
Procedure, shortened: as §2

[7] = test system: johnsongrass (Sorghum halepense); experiment: Test C pre-/postemergence: johnsongrass
Procedure, shortened: as §2

[8] = test system: kochia (Kochia scoparia); experiment: Test C pre-/postemergence: kochia; conditions: Postemergence
Procedure, shortened: as §2

[9] = test system: lambsquarters (Chenopodium album); experiment: Test C pre-/postemergence: lambsquarters; conditions: Postemergence
Procedure, shortened: as §2

[10] = test system: pigweed (Amaranthus retroflexus); experiment: Test C pre-/postemergence: pigweed
Procedure, shortened: as §2

[11] = test system: soybean (Glycine max); experiment: Test C pre-/postemergence: soybean
Procedure, shortened: as §2

[12] = test system: chickweed (common chickweed, Stellaria media); experiment: Test C postemergence: chickweed
Description: At the same time, plants selected from these crop and weed species and also barley (winter barley, Hordeum vulgare), canarygrass (Phalaris minor), chickweed (common chickweed, Stellaria media) windgrass (Apera spica-venti) and deadnettle (henbit deadnettle, Lamium amplexicaule) were planted in pots containing Redi-Earth® planting medium (Scotts Company, 14111 Scottslawn Road, Marysville, Ohio 43041) comprising spaghnum peat moss, vermiculite, wetting agent and starter nutrients and treated with postemergence applications of test chemicals formulated in the same manner. Plants ranged in height from 2 to 18 cm (1- to 4-leaf stage) for postemergence treatments.
Treated plants and controls were maintained in a greenhouse for 13 to 15 days, after which time all species were compared to controls and visually evaluated. Plant response ratings, summarized in Table C, are based on a scale of 0 to 100 where 0 is no effect and 100 is complete control. A dash (-) response means no test result.

[13] = Postemergence, 125 g ai/ha, 0 to 100 scale, 0 is no effect, 100 is complete control
[14] = Postemergence, 500 g ai/ha, 0 to 100 scale, 0 is no effect, 100 is complete control
[15] = Preemergence, 125 g ai/ha, 0 to 100 scale where 0 is no effect and 100 is complete control
[16] = Preemergence, 500 g ai/ha, 0 to 100 scale (0 no effect, 100 complete control)
[17] = 31 g ai/ha, scale 0 to 100 (0 no effect, 100 complete control)
[18] = 62 g ai/ha, scale 0 to 100 (0 no effect, 100 complete control)
[19] = Postemergence, 31 g ai/ha, scale 0 to 100 (0 no effect, 100 complete control)
[20] = Postemergence, 62 g ai/ha, scale 0 to 100 (0 no effect, 100 complete control)
[21] = Postemergence, 125 g ai/ha, scale 0 to 100, 0 no effect, 100 complete control
[22] = Postemergence, 250 g ai/ha, scale 0 to 100
[23] = Preemergence, 31 g ai/ha, scale 0 (no effect) to 100 (complete control)
[24] = Preemergence, 62 g ai/ha, scale of 0 to 100, 0 is no effect, 100 is complete control
[25] = Preemergence, 125 g ai/ha, scale 0 to 100, 0 no effect, 100 complete control
[26] = Preemergence, 250 g ai/ha, scale 0 to 100, 0 no effect, 100 complete control
[27] = 125 g ai/ha, scale 0 to 100, 0 no effect, 100 complete control
[28] = Postemergence, 500 g ai/ha, visual rating on 0 to 100 scale (0 no effect, 100 complete control), approximately ten days
[29] = Preemergence, 31 g ai/ha, scale of 0 to 100, 0 is no effect, 100 is complete control

CCc1nn(-c2ccc(F)cc2)nc1Oc1ccnc(C(F)(F)F)c1 [Compound 166]
Plant response rating, Crabgrass, Large [1, 13]: 90 | Crabgrass, Large plant response rating [1, 14]: 90 | Plant response rating, Crabgrass, Large [1, 15]: 100 | Plant response rating, Crabgrass, Large [1, 16]: 100 | Plant response rating, Foxtail, Giant [2, 13]: 90 | Foxtail, Giant plant response rating [2, 14]: 90 | Plant response rating, Foxtail, Giant [2, 15]: 100 | Plant response rating, Foxtail, Giant [2, 16]: 100 | Plant response rating, Velvetleaf [3, 13]: 80 | Velvetleaf plant response rating [3, 14]: 100 | Plant response rating, Velvetleaf [3, 15]: 30 | Plant response rating, Velvetleaf [3, 16]: 70 | Plant response rating, Oat, Wild [4, 17]: 15 | Plant response rating, Oat, Wild [4, 18]: 20 | Plant response rating, Oat, Wild ([4]; 250 g ai/ha, scale 0 to 100): 30 | Plant response rating, Galium [5, 19]: 50 | Plant response rating, Galium [5, 20]: 50 | Plant response rating, Galium [5, 21]: 60 | Plant response rating, Galium [5, 22]: 80 | Plant response rating, Galium [5, 23]: 10 | Plant response rating, Galium [5, 24]: 10 | Plant response rating, Galium [5, 25]: 90 | Plant response rating, Galium [5, 26]: 100 | Plant response rating, Corn [6, 19]: 15 | Plant response rating, Corn [6, 20]: 15 | Plant response rating, Corn [6, 21]: 15 | Plant response rating, Corn [6, 22]: 15 | Plant response rating, Corn [6, 23]: 0 | Plant response rating, Corn [6, 25]: 5 | Plant response rating, Corn [6, 26]: 20 | Plant response rating, Johnsongrass [7, 19]: 10 | Plant response rating, Johnsongrass [7, 20]: 15 | Plant response rating, Johnsongrass [7, 21]: 20 | Plant response rating, Johnsongrass [7, 22]: 20 | Plant response rating, Johnsongrass [7, 23]: 10 | Plant response rating, Johnsongrass [7, 24]: 30 | Plant response rating, Johnsongrass [7, 25]: 75 | Plant response rating, Johnsongrass [7, 26]: 100 | Plant response rating, Kochia [8, 17]: 90 | Plant response rating, Kochia [8, 18]: 90 | Plant response rating, Kochia [8, 27]: 90 | Plant response rating, Kochia ([8]; 250 g ai/ha, scale 0 to 100): 90 | Plant response rating, Lambsquarters [9, 17]: 60 | Plant response rating, Lambsquarters [9, 18]: 95 | Plant response rating, Lambsquarters [9, 27]: 95 | Plant response rating, Lambsquarters ([9]; 250 g ai/ha, scale 0 to 100): 98 | Plant response rating, Pigweed [10, 19]: 35 | Plant response rating, Pigweed [10, 20]: 85 | Plant response rating, Pigweed [10, 21]: 95 | Plant response rating, Pigweed [10, 22]: 98 | Plant response rating, Pigweed [10, 23]: 100 | Plant response rating, Pigweed [10, 24]: 100 | Plant response rating, Pigweed [10, 25]: 100 | Plant response rating, Pigweed [10, 26]: 100 | Plant response rating, Soybean [11, 19]: 35 | Plant response rating, Soybean [11, 20]: 35 | Plant response rating, Soybean [11, 21]: 35 | Plant response rating, Soybean [11, 22]: 35 | Plant response rating, Soybean [11, 23]: 5 | Plant response rating, Soybean [11, 24]: 5 | Plant response rating, Soybean [11, 25]: 20 | Plant response rating, Soybean [11, 26]: 35 | Plant response rating, Chickweed [12, 17]: 55 | Plant response rating, Chickweed [12, 18]: 90 | Plant response rating, Chickweed [12, 27]: 90 | Plant response rating, Chickweed ([12]; 250 g ai/ha, scale 0 to 100): 90

Cc1nn(-c2ccc(C(F)(F)F)c(F)c2)nc1Cc1ccnc(C(F)(F)F)c1 [Compound 162]
Plant response rating, Crabgrass, Large [1, 13]: 90 | Crabgrass, Large plant response rating [1, 28]: 90 | Plant response rating, Crabgrass, Large [1, 15]: 100 | Plant response rating, Crabgrass, Large [1, 16]: 100 | Plant response rating, Foxtail, Giant [2, 13]: 90 | Foxtail, Giant plant response rating [2, 28]: 90 | Plant response rating, Foxtail, Giant [2, 15]: 100 | Plant response rating, Foxtail, Giant [2, 16]: 100 | Plant response rating, Velvetleaf [3, 13]: 90 | Velvetleaf plant response rating [3, 28]: 100 | Plant response rating, Velvetleaf [3, 15]: 100 | Plant response rating, Velvetleaf [3, 16]: 100 | Plant response rating, Oat, Wild [4, 17]: 40 | Plant response rating, Oat, Wild [4, 18]: 60 | Plant response rating, Oat, Wild [4, 27]: 60 | Plant response rating, Oat, Wild ([4]; 250 g ai/ha, scale 0 to 100): 90 | Plant response rating, Galium [5, 19]: 75 | Plant response rating, Galium [5, 20]: 75 | Plant response rating, Galium [5, 21]: 80 | Plant response rating, Galium [5, 22]: 95 | Plant response rating, Galium [5, 29]: 100 | Plant response rating, Galium [5, 25]: 100 | Plant response rating, Galium [5, 26]: 100 | Plant response rating, Corn [6, 19]: 15 | Plant response rating, Corn [6, 20]: 30 | Plant response rating, Corn [6, 21]: 30 | Plant response rating, Corn [6, 22]: 40 | Plant response rating, Corn [6, 29]: 5 | Plant response rating, Corn [6, 24]: 20 | Plant response rating, Corn [6, 25]: 20 | Plant response rating, Corn [6, 26]: 35 | Plant response rating, Johnsongrass [7, 19]: 45 | Plant response rating, Johnsongrass [7, 20]: 80 | Plant response rating, Johnsongrass [7, 21]: 80 | Plant response rating, Johnsongrass [7, 22]: 98 | Plant response rating, Johnsongrass [7, 29]: 35 | Plant response rating, Johnsongrass [7, 24]: 60 | Plant response rating, Johnsongrass [7, 25]: 98 | Plant response rating, Johnsongrass [7, 26]: 98 | Plant response rating, Kochia [8, 17]: 90 | Plant response rating, Kochia [8, 18]: 90 | Plant response rating, Kochia [8, 27]: 95 | Plant response rating, Kochia ([8]; 250 g ai/ha, scale 0 to 100): 95 | Plant response rating, Lambsquarters [9, 17]: 95 | Plant response rating, Lambsquarters [9, 18]: 95 | Plant response rating, Lambsquarters [9, 27]: 98 | Plant response rating, Lambsquarters ([9]; 250 g ai/ha, scale 0 to 100): 98 | Plant response rating, Pigweed [10, 19]: 85 | Plant response rating, Pigweed [10, 20]: 85 | Plant response rating, Pigweed [10, 21]: 90 | Plant response rating, Pigweed [10, 22]: 95 | Plant response rating, Pigweed [10, 29]: 100 | Plant response rating, Pigweed [10, 24]: 100 | Plant response rating, Pigweed [10, 25]: 100 | Plant response rating, Pigweed [10, 26]: 100 | Plant response rating, Soybean [11, 19]: 70 | Plant response rating, Soybean [11, 20]: 70 | Plant response rating, Soybean [11, 21]: 75 | Plant response rating, Soybean [11, 22]: 95 | Plant response rating, Soybean [11, 29]: 15 | Plant response rating, Soybean [11, 24]: 15 | Plant response rating, Soybean [11, 26]: 25 | Plant response rating, Chickweed [12, 17]: 100 | Plant response rating, Chickweed [12, 18]: 100 | Plant response rating, Chickweed [12, 27]: 100 | Plant response rating, Chickweed ([12]; 250 g ai/ha, scale 0 to 100): 100
